Measurements from article PMC10747112, “Triphenylphosphine Derivatives of Allylbenzenes Express Antitumor and Adjuvant Activity When Solubilized with Cyclodextrin-Based Formulations” (Pharmaceuticals, 2023).
In brackets after ≈: the same amount, converted by molar mass. Read-outs that look alike come from different tables or passages of the source. Marks after values point to notes of the source that are not given here.

Assays:
[1] = Solubility by UV spectroscopy (PBS, with and without M-β-CD); assay type: physicochemical; settings: PBS
Procedure: On the contrary, their complexes with M-β-CD are soluble, and a clear peak in the UV spectrum is pronounced (225 nm). Based on UV spectra data in the presence of M-β-CD, the increase in solubility of apiol-PPh3 and analogues by a second order of magnitude is observed (Table 2).
The solubility of apiol and apiol-PPh3 (or analogues) in aqueous solution was determined by UV spectroscopy. UV spectra were recorded on the UltraSpec 2100 pro device (AmerSham Biosciences, Cambridge, UK) three times. The substances were dissolved in acetonitrile followed by recording the UV spectra at various cytostatics’ concentrations, and then we plotted calibration dependencies. Next, saturated solutions of substances in water were prepared, and the spectra of the aqueous solutions were recorded. Considering the extinction coefficients in water and acetonitrile to be approximately equal, the solubility was determined.

[2] = system: A549 cells; test: MTT assay, cytotoxic activity against A549; assay type: cell-based; settings: Homo sapiens
Procedure: Concentrations of the active substance varied from 10^−2 to 10^−4 M. For MTT assay and biological experiments, substances in the concentration range from 10^−3 to 10^−9 M were studied by the dilution of initial ones in a cell growth medium or buffer.
Adenocarcinomic human alveolar basal epithelial cells A549 cell lines (Manassas, VA, USA) were cultured in RPMI-1640 medium, linear cells of the embryonic kidney human epithelium (HEK293T) were grown in DMEM medium as described earlier. Cell lines were obtained from Lomonosov Moscow State University Depository of Live Systems Collection and Laboratory of Medical Biotechnology, Institute of Biomedical Chemistry (Moscow, Russia).
(§1) The cytotoxic activity of paclitaxel, Apiol-PPh3 and analogues was determined using an MTT test. Paclitaxel-adjuvant synergism coefficients (SC) were calculated as CV (paclitaxel) × CV (alone adjuvant)/CV (combo paclitaxel + adjuvant), where CV represents the cell viability. The synergy coefficient can be interpreted as strong synergy (SC > 2), synergy (2 > SC > 1.2), indifference/additivity (1.2 > SC > 0.8), antagonism (0.8 > SC > 0.5), and inhibition (SC < 0.5), as described earlier.

[3] = system: A549 cells; test: MTT assay, synergy of adjuvants with paclitaxel against A549; assay type: cell-based, human; settings: X − M-β-CD, SC = CV(paclitaxel) × CV(adjuvant)/CV(combo)
Description: Apparently PPh3 derivatives effectively penetrate into cancer cells along a potential gradient, inhibit efflux proteins and mitochondrial enzymes, causing the apoptosis of cancer cells, with IC50 values being lower by two orders of magnitude than the corresponding allylbenzene (Table 3). […] For allylbenzenes, a synergy close to additivity (the cytostatic effect of adjuvant + paclitaxel is almost equal to the sum of their individual contributions) was observed; for PPh3 derivatives, a pronounced increase in the action of paclitaxel is characteristic (the cytostatic effect of adjuvant + paclitaxel is much higher (>) than the sum of their individual contributions). For apiol-PPh3, the most pronounced effect of increasing the activity of paclitaxel was observed (Figure 4b).
Figure 4 Viability of A549 cells in the presence of paclitaxel and allylbenzenes’ PPh3 derivatives in the form of complexes with M-β-CD (1:5 mol/mol). MTT assay. (a) Dose–effect graphs. (b) MTT assay results for 100 nM paclitaxel alone and combined with allylbenzenes’ PPh3 derivatives in the form of complexes with M-β-CD (1:5 mol/mol).
as §1

[4] = design: unit not given here; settings: unmodified allylbenzenes; cited from earlier work
[5] = system: cytochrome P450 3A4; settings: read-out: IC50 cytochrome P450 3A4; cited from earlier work
[6] = system: cancer cells; design: method as in PMID 35128247; settings: dillapiol 25–50 µM; cited from earlier work
[7] = system: erythrocytes; test: Hemolytic activity; assay type: cell-based; settings: X in M-β-CD; 0.1 mg/mL; released hemoglobin relative to 0.05% Triton X-100 control
Description: (§2) Hemolytic activity and thrombogenicity are the primary parameters for evaluating the safety of medical formulations. The phenotypic sea urchin embryo assay developed by colleagues is a visual way to study the toxicity of formulations in vivo. The sea urchin and human genomes contain more than 7000 common genes, including orthologs associated with a number of human diseases. Therefore, sea urchins can be considered as a reliable and versatile model organism for studying the safety of new and existing cytotoxic formulations in vivo. Table 5 presents data on the % of erythrocyte hemolysis, the degree of whole blood thrombosis of apiol-PPh3 and analogues, and data of phenotypic sea urchin embryo assay. Thus, the non-toxicity of PPh3 derivatives of allylbenzenes for normal non-cancer cells, as well as the selectivity of action against cancer cells, is shown. The selectivity of cytotoxic action against cancer cells in comparison with normal cells can be explained by the fact that the PPh3- cation provides selective accumulation and reduction in the mitochondrial membrane potential of the transformed cancer cells. Cyclodextrin (M-β-CD) and heparin are non-toxic (and approved by the FDA for intravenous application).
(§3) The hemolytic activity and thrombogenicity of apiol-PPh3 and analogues were studied using an earlier published technique.

[8] = system: whole blood; test: Thrombogenicity (whole blood thrombosis); settings: X in M-β-CD; 0.1 mg/mL; relative to control with microscopic glass particles
Description: as §2, §3

[9] = system: sea urchin embryos; test: Phenotypic sea urchin embryo assay; assay type: in vivo; settings: X in M-β-CD
Description: as §2
Adult sea urchins, Paracentrotus lividus L. (Echinidae), were collected from the Mediterranean Sea on the Cyprus coast and kept in an aerated seawater tank and were used to study the cleavage alteration of Apiol-PPh3 and analogues. Experiments with sea urchin embryos comply with the requirements of biological ethics.

[10] = system: HEK293T cells; test: FTIR spectroscopy of HEK293T cells during incubation with drug (penetration/adsorption); assay type: cell-based, human; settings: 60 min incubation (apiol-PPh3 in M-β-CD) or pre-incubation (doxorubicin controls); 37 °C
Description: The main cell structural units that contribute to the absorption of IR diapason can be assigned as follows (Figure 5): lipids of the cell membrane (2800–3000 cm^−1), proteins, especially transmembrane (1500–1700 cm^−1), phosphate groups of DNA (1240 cm^−1) and carbohydrates, including lipopolysaccharides (900–1100 cm^−1). Previously, we developed a technique for tracking the penetration and adsorption of the drug into cells using FTIR spectroscopy: dramatic changes in the intensity of the peaks of amide 1 and amide 2 indicate effective penetration of the drug into cells and vice versa.
Here, we present the real-time data of FTIR spectroscopy during the incubation of a suspension of HEK293T cells with apiol-PPh3 in M-β-CD (Figure 5). […] There is only a shift of the peak of amide 1 to the low-frequency region (inserts in Figure 5, the normalized intensity is shown) and amide 2 to the high-frequency region with the simultaneous appearance of the shoulder. This indicates the only adsorption of drug molecules on the cell surface, which is also confirmed by a weak increase in the intensity of the peaks at 2850–3000 cm^−1 corresponding to the valence vibrations of the CH2 groups (lipid bilayer). Thus, PPh3 derivatives show only marginal activity against normal cells.

[11] = A549, read-out: −lg (IC50) of X in M-β-CD against A549
[12] = A549, X in M-β-CD 1:5 mol/mol, MTT, read-out: −lg (IC50) of X in M-β-CD against A549 (converted)

Row | SMILES | Solubility in PBS [1] [µM] | IC50 [2, 11] [µM] | Synergy Coefficients of Adjuvants and PPh3–Adjuvants with Paclitaxel [3] | −lg Kd (X − M-β-CD) [4] | IC50 [2, 12] [µM] | other results
1 | C=CCc1cc(OC)c(OC)c(OC)c1OC [Allyltetramethoxybenzene, allyltetramethoxybenzene, reference compound] | 160 ± 20 (≈ 38.1 µg/mL) | 316 | 1.4 ± 0.2 | 3.4 ± 0.3 | – | –
2 | C=CCc1cc(OC)c2c(c1OC)OCO2 [Apiol, 1-allyl-2,5-dimethoxy-3,4-methylenedioxybenzene] | 130 ± 10 (≈ 28.9 µg/mL) | 251 | 1.3 ± 0.2 | 2.6 ± 0.3 | – | IC50 [5]: 7.9 µM
3 | C=CCc1cc2c(c(OC)c1OC)OCO2 [Dillapiol, dillapiol] | – | – | 1.1 ± 0.1 | 2.7 ± 0.5 | 631 | effect on cell cycle / apoptosis of cancer cells [6]: induced G0/G1 cell cycle arrest
4 | C=CCc1cc(OC)c2c(c1)OCO2 [Myristicin, myristicin, reference compound] | – | – | 0.9 ± 0.2 | 3.5 ± 0.2 | 1260 | solubility ([1]; aqueous buffer, thermodynamic from solid, read-out: Solubility in PBS): 30 ± 7 µM (≈ 5.77 µg/mL)
5 | CC(=O)O[C@H]1C(=O)[C@@]2(C)[C@H]([C@H](OC(=O)c3ccccc3)[C@]3(O)C[C@H](OC(=O)[C@H](O)[C@@H](NC(=O)c4ccccc4)c4ccccc4)C(C)=C1C3(C)C)[C@]1(OC(C)=O)CO[C@@H]1C[C@@H]2O [Paclitaxel, paclitaxel, reference compound] | – | – | – | – | 0.631 | Hemolysis Index [7]: <0.5 (p = 0.012) %; Thrombosis Index [8]: 0.6 ± 0.1%; Concentration Causing Changes in Sea Urchin Embryos [9]: >4 *** μM
6 | COc1cccc2c1C(=O)c1c(O)c3c(c(O)c1C2=O)C[C@@](O)(C(=O)CO)C[C@@H]3O[C@H]1C[C@H](N)[C@H](O)[C@H](C)O1 [doxorubicin, reference compound] | – | – | – | – | – | changes in FTIR amide I and II peak intensity of HEK293T cells (drug penetration) [10]: Dramatic changes in the intensity of the amide 1 and amide 2 peaks
